One experiment has as its system Alternaria solani. As to the kind of experiment: Activity against tomato early blight (AS). Format: in vivo. To be noted: Table VI; tomato seedlings, contact prophylactic foliar spray, 4 days. The method in brief: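 Foliar contact prophylactic spray on tomato seedlings (cv Outdoor Girl, second true leaf expanded) in acetone/water 50:50 with 0.04% Tween 20; 24 h at 20° C, 40% R.H., then inoculation with 10^4 spores/ml A. solani conidia. Kept moist at 21° C; lesion cover rated 4 days post-inoculation against untreated or diluent-sprayed controls.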

The test system of experiment [1] is Pseudocercosporella herpotrichoides. Nature of the experiment: Activity against wheat eyespot in-vitro (PHI). Format: cell-based. To be noted: 10 ppm, 10 days, 20° C., mycelial growth. The method in brief: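 P. herpotrichoides mycelial fragments (5×10^4/ml) grown in half-strength PDB with compound at 10 ppm final, added from acetone. Incubated 10 days at 20 °C; mycelial growth rated against untreated or diluent controls.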

Another experiment has as its system Phytophthora infestans. The class given is in vivo. To be noted: tomato, direct protectant foliar spray.
The test system of the next experiment is Venturia inaequalis. As to the kind of experiment: Activity against apple scab in-vitro (VII). The class given is cell-based. To be noted: 10 ppm, 10 days, 20° C., mycelial growth. The method in brief:
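Compound in acetone was tested at 10 ppm final in half-strength Potato Dextrose Broth inoculated with V. inaequalis mycelial fragments and spores at 5×10^4 propagules/ml. After 10 days at 20° C, mycelial growth was rated against untreated or diluent controls.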

For a further experiment, the system named is Leptosphaeria nodorum. As to the kind of experiment: Activity against wheat leafspot (LN). Format: in vivo. To be noted: direct therapeutic foliar spray, 600 ppm, 6-8 days. The method in brief:
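Wheat cv Norman at single-leaf stage spray-inoculated with 1.5×10^6 conidia/ml, held 24 h at high humidity, then sprayed therapeutically with test compound at 600 ppm. Kept 6-8 days at 22° C, 70% humidity; lesion density per leaf rated against untreated or diluent-sprayed controls.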

The test system of another experiment is Rhizoctonia solani. Nature of the experiment: Activity against Rhizoctonia in-vitro (RSI). Format: cell-based. To be noted: 10 ppm, 10 days, 20° C., mycelial growth. The method in brief:
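R. solani mycelial fragments (5×10^4/ml) in half-strength Potato Dextrose Broth with compound added from acetone to 10 ppm final. Mycelial growth assessed after 10 days at 20° C, rated against untreated or diluent control.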

A further experiment has as its system Pyricularia oryzae. Format: in vivo. To be noted: rice seedlings, direct therapeutic foliar spray, 600 ppm, 4-5 days.
The test system of experiment [2] is Erysiphe graminis f.sp. hordei. Nature of the experiment: Direct protectant activity against barley powdery mildew (EGP). Format: in vivo. To be noted: direct protectant foliar spray, 8 days. The method in brief: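 Barley seedlings (cv Golden Promise, single-leaf stage) were foliar-sprayed, held 24 h at 18 °C/40% RH, then dusted with mildew conidia. After 8 days at 18 °C/40% RH, sporulating leaf area was scored as a rating against untreated or diluent-sprayed controls.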

The test system of experiment [3] is Erysiphe graminis f.sp. hordei. As to the kind of experiment: Activity against barley powdery mildew, direct therapeutic (EGT). The class given is in vivo. To be noted: direct therapeutic foliar spray, 600 ppm, up to 7 days. The method in brief:
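Barley seedlings (cv. Golden Promise, single-leaf stage) were dusted with mildew conidia one day before a therapeutic foliar spray of 600 ppm compound. Plants were kept at 18 °C and 40% humidity for up to 7 days, and sporulating leaf area was rated against untreated or diluent-sprayed controls.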

For the next experiment, the system named is Botrytis cinerea. Nature of the experiment: Direct protectant activity against broad bean grey mould (BCB). The class given is in vivo. To be noted: direct protectant foliar spray, 600 ppm, 4 days. The method in brief: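 Broad bean plants (cv The Sutton, two leaf pairs) sprayed on upper leaf surfaces at 600 ppm, then inoculated 24 h later with 10^6 conidia/ml. Kept 4 days at 22 °C, high humidity; disease control rated from % leaf area with lesions against untreated or diluent controls.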

The subject of a further experiment is Plasmopara viticola. As to the kind of experiment: Antisporulant activity against vine downy mildew (PVA). The class given is in vivo. To be noted: vine leaves, antisporulant foliar spray, 600 ppm, 750 l/ha. The method in brief: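 Cabernet Sauvignon vines (~8 cm) inoculated on lower leaf surfaces with 5×10^4 zoosporangia/ml, held 24 h at 21° C high humidity then 24 h glasshouse. Infected leaves sprayed underside with 600 ppm compound in 1:1 water/acetone, 0.04% Tween 20, 750 l/ha; 96 h glasshouse, 24 h humidity. Sporulating leaf area rated versus control.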

`C1CCN(C2COC3(CCCCC3)C2)CC1` (stereo not shown) [Compound 35]: the “disease control rating AS” value in the experiment on Alternaria solani is recorded as 0 (less than 50% disease control). Besides, the “disease control rating PHI” value in experiment [1] is on record as 0 (less than 50% disease control). The “disease control rating PIP” value with Phytophthora infestans was 0 (less than 50% disease control). In the experiment with Venturia inaequalis, the “disease control rating VII” value is given as 0 (less than 50% disease control). The “disease control rating LN” value with Leptosphaeria nodorum is given as 0 (less than 50% disease control). Further, the “disease control rating RSI” value in the experiment on Rhizoctonia solani was 0 (less than 50% disease control). In addition, in the experiment on Pyricularia oryzae, the “disease control rating PO” value was 0 (less than 50% disease control). The “disease control rating EGP” value in [2] was 0 (less than 50% disease control). Besides, the “disease control rating EGT” value in [3] is listed as 0 (less than 50% disease control). In the experiment on Botrytis cinerea, the “disease control rating BCB” value is 0 (less than 50% disease control). In the experiment on Plasmopara viticola, the “disease control rating PVA” value is on record as 0 (less than 50% disease control).
Consider `CC1CN(C2COC3(CCCCC3)C2)CC(C)O1` (stereo not shown) [Compound 36], for which, in the experiment with Alternaria solani, the “disease control rating AS” value is given as 0 (less than 50% disease control). The “disease control rating PHI” value in experiment [1] is given as 0 (less than 50% disease control). In addition, the “disease control rating PIP” value with Phytophthora infestans is 0 (less than 50% disease control). For the same molecule, the “disease control rating VII” value with Venturia inaequalis was 1 (about 50-80% disease control). Further, in the experiment with Leptosphaeria nodorum, the “disease control rating LN” value is listed as 0 (less than 50% disease control). In addition, in the experiment with Rhizoctonia solani, the “disease control rating RSI” value is listed as 0 (less than 50% disease control). The “disease control rating PO” value in the experiment with Pyricularia oryzae is recorded as 0 (less than 50% disease control). In addition, in [2], the “disease control rating EGP” value is 2 (greater than 80% disease control). Moreover, the “disease control rating EGT” value in [3] is on record as 2 (greater than 80% disease control). Moreover, the “disease control rating BCB” value with Botrytis cinerea is reported as 0 (less than 50% disease control). Besides, the “disease control rating PVA” value with Plasmopara viticola is given as 0 (less than 50% disease control).
`CCCCCCNC1COC2(CCC(C(C)(C)C)CC2)C1` (stereo not shown) [Compound 37]: the “disease control rating AS” value in the experiment with Alternaria solani is listed as 0 (less than 50% disease control). The “disease control rating PHI” value in experiment [1] was 1 (about 50-80% disease control). For the same molecule, the “disease control rating PIP” value in the experiment with Phytophthora infestans is 0 (less than 50% disease control). For the same molecule, the “disease control rating VII” value with Venturia inaequalis is recorded as 0 (less than 50% disease control). The “disease control rating LN” value in the experiment on Leptosphaeria nodorum is given as 0 (less than 50% disease control). Besides, the “disease control rating RSI” value in the experiment on Rhizoctonia solani is 0 (less than 50% disease control). Also, the “disease control rating PO” value in the experiment with Pyricularia oryzae is 0 (less than 50% disease control). Also, in [2], the “disease control rating EGP” value is 2 (greater than 80% disease control). Moreover, the “disease control rating EGT” value in experiment [3] was 2 (greater than 80% disease control). Further, the “disease control rating BCB” value in the experiment on Botrytis cinerea is recorded as 1 (about 50-80% disease control). In the experiment with Plasmopara viticola, the “disease control rating PVA” value was 0 (less than 50% disease control).
As for `CCCCCCNC1COC2(CCC(C(C)(C)C)CC2)C1` (stereo not shown) [Compound 38], the “disease control rating AS” value in the experiment with Alternaria solani is 2 (greater than 80% disease control). The “disease control rating PHI” value in experiment [1] was 2 (greater than 80% disease control). Also, the “disease control rating PIP” value with Phytophthora infestans was 0 (less than 50% disease control). In addition, in the experiment with Venturia inaequalis, the “disease control rating VII” value is given as 0 (less than 50% disease control). Further, in the experiment on Leptosphaeria nodorum, the “disease control rating LN” value was 0 (less than 50% disease control). Moreover, in the experiment with Rhizoctonia solani, the “disease control rating RSI” value is on record as 1 (about 50-80% disease control). Moreover, the “disease control rating PO” value with Pyricularia oryzae was 0 (less than 50% disease control). Besides, in [2], the “disease control rating EGP” value is reported as 2 (greater than 80% disease control). For the same molecule, the “disease control rating EGT” value in experiment [3] is 2 (greater than 80% disease control). Besides, the “disease control rating BCB” value with Botrytis cinerea is 0 (less than 50% disease control). In the experiment with Plasmopara viticola, the “disease control rating PVA” value is given as 0 (less than 50% disease control).
Take `CCCCCCNC1COC2(CCC(C(C)(C)C)CC2)C1` (stereo not shown) [Compound 39]: in the experiment on Alternaria solani, the “disease control rating AS” value is listed as 2 (greater than 80% disease control). Moreover, in experiment [1], the “disease control rating PHI” value was 1 (about 50-80% disease control). The “disease control rating PIP” value with Phytophthora infestans is on record as 0 (less than 50% disease control). Moreover, the “disease control rating VII” value in the experiment on Venturia inaequalis is 0 (less than 50% disease control). In the experiment with Leptosphaeria nodorum, the “disease control rating LN” value is listed as 0 (less than 50% disease control). In addition, the “disease control rating RSI” value in the experiment with Rhizoctonia solani is on record as 0 (less than 50% disease control). Besides, the “disease control rating PO” value with Pyricularia oryzae is reported as 0 (less than 50% disease control). In addition, the “disease control rating EGP” value in experiment [2] was 2 (greater than 80% disease control). For the same molecule, in experiment [3], the “disease control rating EGT” value is 2 (greater than 80% disease control). The “disease control rating BCB” value with Botrytis cinerea was 0 (less than 50% disease control). Also, in the experiment with Plasmopara viticola, the “disease control rating PVA” value is reported as 0 (less than 50% disease control).
As to `CCCCCCNC1COC2(CCC(C(C)(C)C)CC2)C1` (stereo not shown) [Compound 40], the “disease control rating AS” value with Alternaria solani is on record as 2 (greater than 80% disease control). Besides, in [1], the “disease control rating PHI” value is recorded as 1 (about 50-80% disease control). In the experiment on Phytophthora infestans, the “disease control rating PIP” value is 0 (less than 50% disease control). In the experiment with Venturia inaequalis, the “disease control rating VII” value was 0 (less than 50% disease control). In the experiment with Leptosphaeria nodorum, the “disease control rating LN” value was 0 (less than 50% disease control). Moreover, the “disease control rating RSI” value in the experiment with Rhizoctonia solani is 0 (less than 50% disease control). Moreover, the “disease control rating PO” value with Pyricularia oryzae is 0 (less than 50% disease control). Besides, the “disease control rating EGP” value in experiment [2] is listed as 2 (greater than 80% disease control). Further, the “disease control rating EGT” value in experiment [3] was 2 (greater than 80% disease control). Besides, in the experiment with Botrytis cinerea, the “disease control rating BCB” value is 0 (less than 50% disease control). Also, the “disease control rating PVA” value with Plasmopara viticola is 0 (less than 50% disease control).
With `CCCCCCNC1COC2(CCC(C(C)(C)C)CC2)C1` (stereo not shown) [Compound 41], the “disease control rating AS” value with Alternaria solani is recorded as 0 (less than 50% disease control). Moreover, in [1], the “disease control rating PHI” value is 1 (about 50-80% disease control). Also, the “disease control rating PIP” value in the experiment with Phytophthora infestans is reported as 0 (less than 50% disease control). Also, the “disease control rating VII” value in the experiment on Venturia inaequalis is on record as 0 (less than 50% disease control). The “disease control rating LN” value with Leptosphaeria nodorum is 1 (about 50-80% disease control). In addition, in the experiment on Rhizoctonia solani, the “disease control rating RSI” value was 0 (less than 50% disease control). Moreover, the “disease control rating PO” value in the experiment with Pyricularia oryzae is on record as 0 (less than 50% disease control). The “disease control rating EGP” value in [2] was 2 (greater than 80% disease control). The “disease control rating EGT” value in experiment [3] is on record as 2 (greater than 80% disease control). Besides, the “disease control rating BCB” value with Botrytis cinerea is recorded as 0 (less than 50% disease control). Moreover, the “disease control rating PVA” value in the experiment on Plasmopara viticola is reported as 0 (less than 50% disease control).
In the case of `CCCCCCCCCCNC1COC2(CCC(C(C)(C)C)CC2)C1` (stereo not shown) [Compound 42], the “disease control rating AS” value in the experiment with Alternaria solani was 0 (less than 50% disease control). The “disease control rating PHI” value in experiment [1] is listed as 1 (about 50-80% disease control). Also, the “disease control rating PIP” value in the experiment with Phytophthora infestans was 0 (less than 50% disease control). For the same molecule, the “disease control rating VII” value in the experiment on Venturia inaequalis is on record as 2 (greater than 80% disease control). Besides, the “disease control rating LN” value in the experiment on Leptosphaeria nodorum was 0 (less than 50% disease control). Moreover, in the experiment with Rhizoctonia solani, the “disease control rating RSI” value is 0 (less than 50% disease control). Also, the “disease control rating PO” value in the experiment on Pyricularia oryzae is reported as 0 (less than 50% disease control). Besides, the “disease control rating EGP” value in experiment [2] is recorded as 2 (greater than 80% disease control). In addition, the “disease control rating EGT” value in experiment [3] is 2 (greater than 80% disease control). In addition, the “disease control rating BCB” value in the experiment with Botrytis cinerea is 0 (less than 50% disease control). The “disease control rating PVA” value with Plasmopara viticola is reported as 0 (less than 50% disease control).

(Values after patent publication US5591741A, “Fungicidal spiroheterocyclic derivatives” (American Cyanamid Company, priority 1993, dated 1997).)
